Earlier results in patent US20230312573A1, “NOVEL SALTS, CRYSTALS, AND CO-CRYSTALS” (INTRA-CELLULAR THERAPIES, INC., priority 2021, published 2023).

What was measured:
[1] = target: H1 histaminergic receptor (Homo sapiens, UniProt P35367)
[2] = target: T1, 5-HT2C receptor (Homo sapiens, UniProt P28335)
T1 sequence (P28335 33-458): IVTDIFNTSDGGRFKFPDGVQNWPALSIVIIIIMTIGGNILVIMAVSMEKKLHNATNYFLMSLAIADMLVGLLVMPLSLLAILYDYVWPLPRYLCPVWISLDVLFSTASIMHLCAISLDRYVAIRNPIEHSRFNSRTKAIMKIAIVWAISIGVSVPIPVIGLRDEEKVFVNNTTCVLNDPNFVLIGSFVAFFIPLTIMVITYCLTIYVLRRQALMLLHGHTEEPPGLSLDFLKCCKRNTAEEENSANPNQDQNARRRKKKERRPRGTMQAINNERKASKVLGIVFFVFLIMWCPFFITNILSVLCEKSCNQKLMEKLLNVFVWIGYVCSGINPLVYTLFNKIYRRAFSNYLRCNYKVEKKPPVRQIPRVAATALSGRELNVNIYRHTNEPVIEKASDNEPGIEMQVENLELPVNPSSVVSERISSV

[3] = system: muscarinic receptor

H1 histaminergic receptor, sequence (P35367 whole entry): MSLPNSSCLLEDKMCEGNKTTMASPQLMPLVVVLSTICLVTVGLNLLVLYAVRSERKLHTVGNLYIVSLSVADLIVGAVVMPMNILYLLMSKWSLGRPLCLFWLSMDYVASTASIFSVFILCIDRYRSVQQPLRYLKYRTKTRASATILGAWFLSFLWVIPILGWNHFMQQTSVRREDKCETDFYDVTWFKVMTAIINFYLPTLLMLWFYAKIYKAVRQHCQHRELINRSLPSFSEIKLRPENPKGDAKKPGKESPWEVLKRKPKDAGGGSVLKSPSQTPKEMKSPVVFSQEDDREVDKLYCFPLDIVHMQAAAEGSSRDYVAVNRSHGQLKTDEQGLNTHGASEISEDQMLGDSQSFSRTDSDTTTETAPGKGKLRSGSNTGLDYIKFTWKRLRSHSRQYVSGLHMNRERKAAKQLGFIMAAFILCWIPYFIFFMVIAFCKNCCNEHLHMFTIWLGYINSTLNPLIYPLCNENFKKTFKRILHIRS

binding to H1 histaminergic receptors [1]: negligible binding
binding to 5-HT2C receptors [2]: negligible binding
binding to muscarinic receptors [3]: negligible binding
SMILES: CN1CCN2c3c(cccc31)[C@@H]1CN(CCCC(=O)c3ccc(F)cc3)CC[C@@H]12 [Lumateperone, 1-(4-fluoro-phenyl)-4-((6bR,10aS)-3-methyl-2,3,6b,9,10,10a-hexahydro-1H,7H-pyrido[3′,4′:4,5]pyrrolo[1,2,3-de]quinoxalin-8-yl)-butan-1-one]
